Compared with O=C1C(=O)c2ccc(-c3ccccc3)cc2C2=C1SCC1(CCN(CC(O)COc3ccc(Cl)cc3)CC1)O2 (centres undefined), CS(=O)(=O)c1ccc(-c2sc(-c3ccccc3Cl)nc2-c2ccccc2)cc1 is higher in melting point: 93 to 98 °C for the first, 192 to 195 °C for the second.

Compared with CCN(CC)C(=O)c1nc(C=Cc2ccc(OC)cc2)no1, COc1c(C)c(C)c2c(c1C)C(c1ccc(C=O)cc1)C(C)(C)O2 (centres undefined) is higher in melting point: 69 to 70 °C for the first, 108 to 109 °C for the second.

First: CCC(O)(c1cc(F)cc(Sc2ccc3c(-c4ccoc4)cc(C#N)cc3c2)c1)c1nccs1 (centres undefined)
Second: CC(=O)Nc1c(C(=O)c2ccccc2)[nH]c2cc(C#N)ccc12
The melting point of the first is lower: 120 to 122 °C for the first, 244 to 246 °C for the second.

First: O=C(CCCCCBr)NC1CCCCC1
Second: COc1ccc(C(=O)CCCCCN2CCC(CNC(=O)c3cc(Cl)c(N)cc3OC)CC2)cc1OC
The melting point of the first is lower: 73 to 74 °C for the first, 102 to 105 °C for the second.

Compared with CCOC1CC2(C)C(CCC3C4CCC(C(C)=O)C4(C)CC(NC(=O)OCC(Cl)(Cl)Cl)C32)CC1OC(=O)OCC(Cl)(Cl)Cl (centres undefined), CSCOC1CCC2C3CCC4=CC(=O)C=CC4(C)C3(F)C(O)CC12C (centres undefined) is higher in melting point: 147 to 149 °C for the first, 224 to 225 °C for the second.

First: Cc1[nH]c(=O)cc2c1CC(c1ccccn1)CC2 (centres undefined)
Second: COc1nc(C)nc(N2CCc3ccccc3CC2)c1[N+](=O)[O-]
The melting point of the first is higher: 260 °C for the first, 123 to 128 °C for the second.

Compared with CC1Sc2c(C(=O)O)c(=O)c3cc(F)c(N4CCC(N)C4)c(Cl)c3n21 (centres undefined), CC1CCc2c(Cl)c(Cl)cc3c(=O)c(C(=O)O)cn1c23 (centres undefined) is lower in melting point: over 300 °C for the first, 269 to 271 °C for the second.

Compared with O=C(CN1CCN(c2nccs2)CC1)N1CCC(O)(c2cccc(C(F)(F)F)c2)CC1, CON(C)C(=O)CN1CCC(CCN2CCN(c3cccc(C)c3C)CC2)CC1 is lower in melting point: 157 to 158 °C for the first, 66 °C for the second.

Compared with Cc1nc(CC(=O)NCc2cccc3c2C(=O)N(C2CCC(=O)NC2=O)C3=O)c(C)s1 (centres undefined), CCCCC1(N(C)C)CC=C(c2[nH]c3ccccc3c2CCN2C(=O)c3ccccc3C2=O)CC1 (centres undefined) is lower in melting point: 140 to 142 °C for the first, 125 to 130 °C for the second.

First: CN1CCN(c2cccc3ccc(OC(=O)c4ccc(Cl)cc4)cc23)CC1
Second: O=C(O)c1ccc(NCCCc2ccc(Cl)cc2)cc1
The melting point of the first is lower: 110 to 111 °C for the first, 191 to 192 °C for the second.

First: O=C(O)C[S@](=O)C(c1ccccc1)c1ccccc1
Second: CCCOC(=O)c1cncn1C(c1ccccc1)c1ccccc1
The melting point of the first is higher: 118 to 120 °C for the first, 81 °C for the second.

First: CC(C)C(=O)Nc1cccc(-c2ccnc3c(C(=O)c4ccco4)cnn23)c1
Second: CNc1nc(-c2cccc(NC(=O)c3cccnc3)c2)c2cc(OC)c(OC)cc2n1
The melting point of the first is lower: 189 to 191 °C for the first, 251 to 253 °C for the second.

First: O=[N+]([O-])C1=C2N(Cc3ccc(Cl)nc3)CCCN2C2CCC1O2 (centres undefined)
Second: CC(=O)NC[C@H]1CN(c2ccc(N3CCN(c4ccc([N+](=O)[O-])o4)CC3)c(F)c2)C(=O)O1
The melting point of the first is lower: 143 to 145 °C for the first, 191 to 204 °C for the second.

First: CCn1c2ccccc2c2cc(N(c3ccccc3)c3ccccc3)ccc21
Second: Oc1cccc2c1c1cccc(Cl)c1n2Cc1ccccc1
The melting point of the first is lower: 152 to 154 °C for the first, 163 to 166 °C for the second.

First: O=C(Nc1ccc2c(c1)OCCO2)c1ccc(-c2cccs2)cc1
Second: CC(=O)Nc1ccc(-c2nc3n(c2-c2ccc(NC(C)=O)cc2)CCS3)cc1
The melting point of the first is lower: 192 to 195 °C for the first, 285 to 290 °C for the second.

Compared with O=C(O)c1cn(-c2ccc(F)cc2)c2c(F)c(N3Cc4cccc(O)c4C3)c(F)cc2c1=O, O=Cc1c(O)cccc1OCc1ccc(C(=O)O)cc1 is lower in melting point: over 300 °C for the first, 239 to 240 °C for the second.

Compared with CCOC(=O)c1cccc(-c2nc(=O)c3ccccc3s2)n1, CCCC(=O)c1cnc2c(N)cccc2c1Nc1ccccc1C is lower in melting point: 170 to 172 °C for the first, 108 to 110 °C for the second.

Compared with O=C1c2ccccc2C(=O)N1CCOc1cccc2c1SCCC2, COC(CN1C(=O)CN=C(c2ccccc2)c2cc(Cl)ccc21)OC is lower in melting point: 166 °C for the first, 117 to 119 °C for the second.

First: O=C1c2cc(OCc3ccccc3)ccc2OCC1Cn1ccnc1 (centres undefined)
Second: O=c1c2ccc(OCc3ccccc3)cc2[nH]c2c([N+](=O)[O-])ccc(Cl)c12
The melting point of the first is lower: 108 to 110 °C for the first, 198 to 202 °C for the second.

Compared with CCOC(=O)C(C)(NC(=O)Cc1ccc(O)c2ncccc12)C(=O)OCC, CCOC(=O)C(=O)CC(=O)c1cn(Cc2ccncc2)c2ccccc2c1=O is higher in melting point: 153 to 154 °C for the first, 168 to 169 °C for the second.

First: Cc1cccc(NC(=S)SCC(=O)C(C)(C)C)n1
Second: CC(Cn1ncc2ccc3c(c21)NC(=O)CO3)NC(=O)OC(C)(C)C (centres undefined)
The melting point of the first is lower: 80 °C for the first, 147 to 148 °C for the second.

CCOC(=O)c1c2n(c3c(F)c(Cl)ccc3c1=O)CCS2 and CONC(=O)c1nc(-c2ccc(Cl)c(OC)c2F)cc(N)c1Cl cannot be ordered by melting point: 216 °C for the first, 215 to 217 °C for the second.

Compared with COC(=O)c1cc2c(Oc3ccc(Cl)cc3)cncc2s1, O=C(O)c1cc(Oc2ccc(Cl)cc2Cl)ccc1Br is higher in melting point: 99 to 100 °C for the first, 132 to 133 °C for the second.

Compared with BrCCCCCCCCCCn1c2ccccc2c2ccccc21, O=c1[nH]c2c(CCO)c3ccccc3n2c2ccccc12 is higher in melting point: 38 to 40 °C for the first, 248 to 252 °C for the second.

Compared with NS(=O)(=O)c1nc2ccc(OCC3CO3)cc2s1 (centres undefined), CCOC(=O)c1ccc(Br)c(OCC)c1N(CC)S(C)(=O)=O is lower in melting point: 149 to 152 °C for the first, 43 to 45 °C for the second.

Compared with CCc1cccc(CC)c1N1C(=S)N(C)C(O)C1O (centres undefined), CCN1c2ccc(C#N)cc2N(CCCCS(=O)(=O)O)C1C (centres undefined) is higher in melting point: 87 to 90 °C for the first, over 260 °C for the second.

First: CCOC(=O)CC1c2ccccc2C(=O)N1c1ccccc1 (centres undefined)
Second: O=C1Nc2ccccc2Sc2ccccc21
The melting point of the first is lower: 109 to 110 °C for the first, 258 to 259 °C for the second.

First: CC1Cc2cc3c(cc2C(c2ccc([N+](=O)[O-])cc2)=NN1C1=NCCS1)OCO3 (centres undefined)
Second: CCCc1c(C(=O)C2CCCCC2)c2ccc(C(N)=O)cc2n1Cc1cc2c(cc1Cl)OCO2
The melting point of the first is lower: 185 to 187 °C for the first, 209 to 211 °C for the second.

First: O=c1n(CCCCl)nc2n1-c1ccccc1OC2
Second: CC(Cl)C(=O)N1c2ccccc2C(=O)Nc2cccnc21 (centres undefined)
The melting point of the first is lower: 77 to 78 °C for the first, 215 to 218 °C for the second.

Compared with NC(=O)CCC1CN(c2ccc(C3=CCN(C=O)CC3)c(F)c2)C(=O)O1 (centres undefined), O=C(Nc1ccc(F)cc1)N[C@H]1CCCN(C(=O)c2ccc(F)cc2)C1 is higher in melting point: 148 to 151 °C for the first, 228 to 231 °C for the second.

First: O=C(NC(CO)C(=O)N1CCN(CCCc2ccccc2)CC1)OCc1ccccc1 (centres undefined)
Second: Cc1c(CO)c2cnnc(NCc3ccccc3)c2n1Cc1ccccc1
The melting point of the first is lower: 95 to 97 °C for the first, 238 to 240 °C for the second.

First: COCCc1nc2cnc3cc(Br)cnc3c2n1CC(C)(C)O
Second: Nc1nc2ccccc2c2c1ncn2CCOCCCc1nccs1
The melting point of the first is lower: 125 °C for the first, 134 to 135 °C for the second.

First: CNc1c([N+](=O)[O-])c(Br)nn1Cc1ccccc1
Second: CS(=O)(=O)c1ccc(Oc2ccc(Cc3ccccc3)cc2)cc1
The melting point of the first is higher: 116 °C for the first, 109 to 110 °C for the second.

First: CCCCN(CCCC)C(=O)/C=C/c1ccc(Cn2c(-c3ccc(F)cc3)c(C)c3cc(O)ccc32)cc1
Second: COc1cccc2c(CCOCc3ccc(-c4ccccc4)cc3)coc12
The melting point of the first is higher: 180 °C for the first, 77 to 78 °C for the second.

First: COc1cccc(CNc2ncnc3c2sc2nc(N4CCCC4)c4c(c23)CC(C)(C)CC4)c1OC
Second: CCc1nc(/C=C\c2cn(-c3ccccc3)nc2OCc2ccc(OCc3csc(N4CCCCC4)n3)c(OC)c2)cs1
The melting point of the first is higher: 194 to 195 °C for the first, 93 to 94 °C for the second.

Compared with Oc1ccccc1-c1cnc2cnc(-c3ccccc3O)nc2c1, COc1ccccc1-n1c(C(S)c2ncnc3[nH]cnc23)nc2cccc(Cl)c2c1=O (centres undefined) is lower in melting point: 239 to 240 °C for the first, 237 °C for the second.

First: CCc1nn(-c2cc(NC(=O)CCOC)ccc2Cl)c(=O)n1Cc1ccc(-c2ccccc2S(=O)(=O)NC(=O)OC(C)(C)C)cc1F
Second: COc1cccc([C@H]2O[C@H](CC(=O)Nc3ccc4oc(C(=O)O)c(OC(C)C)c4c3)C(=O)N(CC(C)(C)CO)c3ccc(Cl)cc32)c1OC
The melting point of the first is lower: 128 to 131 °C for the first, 174 to 175 °C for the second.

Going from CC1(C)OC(=O)N[C@@H]1c1ccccc1 to BrCC1(CBr)COC(c2ccccc2)OC1, the melting point falls from 149 °C to 66 °C.

First: CCc1cn(-c2ncccn2)c2c1C(=O)CC(C)(C)C2
Second: CCn1c(=O)c2[nH]c(/C=C/c3ccc4c(c3)OCCO4)nc2n(CC)c1=O
The melting point of the first is lower: 111 to 114 °C for the first, over 300 °C for the second.

Compared with COc1cc2c(C3=CCNCC3)c[nH]c2cc1Cl, COc1cc(Cc2cnc(N)nc2N)cc(OC)c1N is lower in melting point: 222 to 224 °C for the first, 209 to 210 °C for the second.

First: COc1ccc(S(=O)(=O)C2(C(=O)O)CCN(C(C)C)CC2)cc1
Second: C=CCCNS(=O)(=O)CC(=O)C1=C(C)NC(C)=C(C(=O)OC(C)C)C1c1cccc([N+](=O)[O-])c1 (centres undefined)
The melting point of the first is higher: 204 °C for the first, 137 to 140 °C for the second.

First: COC(=O)C(Oc1cc(OCc2ccsc2)ccc1C#N)c1ccccc1Br (racemic)
Second: COc1cc2c(cc1OCc1ccccc1)CCN(Cc1cccc(Oc3ccccc3)c1)C2
The melting point of the first is lower: 92 to 95 °C for the first, 111 to 112 °C for the second.

First: CCCCn1c(=O)c2c(cnn2S(=O)(=O)CC)n(CCCC)c1=O
Second: CCCN(CCCC(=O)Nc1c(C(C)C)nc(C)nc1N(CC)CC)c1ccccc1
The melting point of the first is lower: 119 to 121 °C for the first, 129 to 131 °C for the second.

First: CCC(CCNC(=O)C(C#N)=Cc1ccc(O)c(O)c1)NC(=O)C(C#N)=Cc1ccc(O)c(O)c1 (centres undefined)
Second: CSc1ccc2c3c(cccc13)C(=O)N2CCCC#N
The melting point of the first is higher: 252 °C for the first, 120 to 122 °C for the second.

Compared with O=c1[nH]c2cc(C(F)(F)F)c(C(F)(F)F)cc2[nH]c1=O, Cn1c(C(F)(F)F)cc(=O)n(-c2cc(OC3COC(=O)O3)c(Cl)cc2F)c1=O (centres undefined) is lower in melting point: over 250 °C for the first, 165 to 167 °C for the second.

First: OC[C@@H]1O[C@H](n2c(NC3CC3)nc3c(Cl)c(Cl)c(Cl)cc32)[C@@H](O)[C@H]1O
Second: O=Cc1c(Cl)cc(O)c(O)c1Cl
The melting point of the first is lower: 208 to 209 °C for the first, 213 to 215 °C for the second.

First: O=C1C(c2cccc(C(F)(F)F)c2)=C(NC2CC2)OC1c1ccccc1 (centres undefined)
Second: COc1ccc(C2OCc3ccccc3O2)cc1O (centres undefined)
The melting point of the first is higher: 160 to 164 °C for the first, 105 to 106 °C for the second.

First: CC(C)(C)OC(=O)N[C@@H](Cc1cncn1COCc1ccccc1)C(=O)O
Second: CC(O)c1cc2cc(OCC(=O)O)c(Cl)c(Cl)c2s1 (centres undefined)
The melting point of the first is lower: 155 to 157 °C for the first, 173 to 175 °C for the second.

First: CC(c1c[nH]c([N+](=O)[O-])n1)N1CCCCC1 (centres undefined)
Second: NCC1CCc2[nH]c3ccc(OC(F)(F)F)cc3c2C1 (centres undefined)
The melting point of the first is lower: 61 to 62 °C for the first, 148 to 150 °C for the second.

For COc1cc(C=O)cc(C#N)c1O, the melting point was 180 °C.

Source: a melting point compilation (Tetko et al.; mined from patent text by program, amines drawn as free bases though some values may be those of a salt)
